Experimental data published in US20050192279A1, “Pyridazinones as antagonists of alpha4 integrins” (priority 2004, published 2005).

Tested on: TNBS induced colitis
Assay: Trinitrobenzenesulfonic acid (TNBS) Induced Colitis, rats
Assay type: in vivo, Male Wistar rats
Conditions: rat
Text: In Vivo Model: Trinitrobenzenesulfonic acid (TNBS) Induced Colitis The TNBS model of experimental colitis (Bobin-Dubigeon, C., Collin, X., Grimaud, N., Robert, J-M., Guillaume Le Baut, G., and Petit, J-Y. Effects of tumour necrosis factor-a synthesis inhibitors on rat trinitrobenzene sulphonic acid-induced chronic colitis. Eur. J. […] These symptomatic signs in the above—mentioned models are similar to what occur in human colitis. Male Wistar rats (200-250 g) are inoculated with 500 microliters of a solution of 10 to 20 mg of TNBS in 30% ethanol delivered intracolonically via catheter or ball-tipped gavage needle to the 8th cm from the anus. When Balb/c female mice (8-12 weeks of age) were used, the inoculation volume was 50 microliters containing 2-3 mg of TNBS in 30% ethanol delivered intracolonically via catheter or ball-tipped gavage needle to the 4th cm from the anus. During the ensuing 7 days, test animals were administered a preparation of an experimental compound. This material may be administered orally, subcutaenously or intraperitoneally, once or twice daily. At the end of this period, the animals were euthanized and their colons were collected for further analysis. Among the parameters analyzed were the length of the colon starting from the anus to the top of the cecum, the weight of the colon, the consistency of any stools found within the colon, the presence or absence of intraperitoneal adhesions on the serosal surfacr of the intestin, and the gross macroscopic appearance of the colon. […] In rats, the distal colon between the 5th and the 8th centimeter is dissected and placed in 10% neutral buffered formalin for later histological analysis. In mice, the 1st to the 4th cm was collected for histological analyses. For the following parameters—colon length, colon weight, stool consistency and appearance and macroscopic damage—a scoring system was used to describe the changes. The four scores for each animal were added to provide a Total Score. […] For the presence of blood in stool, one point was added to scores <3. […] Histological analyses of tissues consisted of staining paraffin-embedded tissue sections with hematoxylin-eosin dye. Epithelial damage scores were determined as the fraction of the tissue section showing damaged epithelium. […] Statistic analyses for these experiments performed with Graphpad Prism 4.0, using ANOVA, with Dunnets or Bonferroni's multiple comparisons test.

## COc1cnn(C)c(=O)c1-c1ccc(C[C@H](NC(=O)c2c(Cl)cccc2Cl)C(=O)O)cc1 [Cpd 17]
10 mg/kg sc bid
  % Inhibition of Epithelial Damage Score: −5.822%
  % Inhibition of Total Macroscopic Score: −1.638%
30 mg/kg sc bid
  % Inhibition of Epithelial Damage Score: 8.5%
  % Inhibition of Total Macroscopic Score: −4.117%
